Test results reported in patent US20250295109A1, “UNIVERSAL SYNERGIST FOR INSECT ATTRACTANTS” (North Carolina State University, priority 2022, published 2025).

Columns and labels:
[1] = system: Drosophila melanogaster; assay: dual choice trapping cage assay with commercial fruit fly traps and lure (TERRO); type: in vivo; conditions: 24 hours
Experimental: FIG. 7A is a schematic drawing showing a design for a dual choice free flight cage trapping assay used to determine the effect of nonanal on the trapping of fruit flies (Drosophila melanogaster) when used in combination with a commercial fruit fly lure. Inside a 30 centimeter (cm) by 30 cm cage are placed two commercial fruit fly traps. Inside each commercial fruit fly trap is placed 1 milliliter (mL) of a commercial fruit fly lure. In addition, in one trap (Trap 1) is placed a 1.5 mL vial containing 50 microliters (μL) dimethyl sulfoxide (DMSO), while in the other trap (Trap 2) is placed a 1.5 mL vial containing 50 μL of a solution of nonanal in DMSO. For each experiment 40 to 120 fruit flies are used. The attraction of starved Drosphila melanogaster males and females to a commercial lure and trap to which various amounts of nonanal were added is shown in FIG. 7B. In all experiments, 40 to 120 3-4 day old, 24 hours starved flies (males and females) were given a choice between two commercial fruit fly traps (sold under the tradename TERRO® traps; Model #BT2502; Senoret Chemicals Co., Inc., Lititz, Pennsylvania, United States of America). […] After 24 hours, flies in both traps were counted. […] After 24 hours, flies in both traps were counted.

[2] = system: male CEW antenna; assay: GC-EAD of female sex pheromone gland extract on male CEW antenna; parameters: species or system Helicoverpa zea; conditions: compound present in CEW female sex pheromone gland extract
Experimental: Based on the finding that nonanal attracts male CEW in laboratory and field behavioral studies, and as described hereinbelow, a study of the female sex pheromone gland extract of Helicoverpa zea was performed using a gas chromatography-electroantennograom detector (GC-EAD), a device that couples a GC to an insect antenna, the olefactory organ of insects that serves as a biological detector. In this device, the GC separates chemicals in a mixture and presents them to the antenna, and its electrophysiological responses reveal which chemicals it senses. […]
The sex pheromone glands of multiple CEW females were dissected and the contents extracted with hexane. […] In parallel to the GC, the electrophysiological response of the antenna is recorded to identify the active compounds. […] Gland extracts were also analyzed using gas chromatography-mass spectrometry (GC-MS) (6890 GC and 5975 MS, Agilent Technologies, Palo Alto, California, United States of America) The GC-MS was operated in pulsed splitless mode (15 psi for 0.5 min, then 6 psi) and equipped with a DB-WAXetr column (30 m×0.25 mm, df=0.25 μm, Agilent Technologies, Palo Alto, California, United States of America), and helium was used as the carrier gas at an average velocity of 34 cm/s. […]

## CCCCCCCCC=O [nonanal]
[1]; increasing amount of nonanal in 50 μl DMSO with 1 mL commercial fruit fly lure, other trap lure plus DMSO
  flies trapped, nonanal trap versus trap without nonanal: more flies are trapped
[1]; too much nonanal in 50 μl DMSO with 1 mL commercial fruit fly lure
  attraction of flies to commercial fruit fly lure at too much nonanal: interferes with attraction of flies to the commercial fruit fly lure
[2]
  EAD response of the antenna: elicit an EAD response in the antenna
